Results taken from ChEMBL document CHEMBL3351312, “Design of Fluorine-Containing 3,4-Diarylfuran-2(5H)-ones as Selective COX-1 Inhibitors” (ACS Med Chem Lett, 2014).

Key:
[1] = target: T1, Prostaglandin G/H synthase 1 (Ovis aries, UniProt P05979); experiment: Inhibition of ovine COX-1 assessed as inhibition of [14C]arachidonic acid to radiolabeled prostaglandins preincubated for 20 mins by TLC-based assay
T1 sequence (P05979 whole entry): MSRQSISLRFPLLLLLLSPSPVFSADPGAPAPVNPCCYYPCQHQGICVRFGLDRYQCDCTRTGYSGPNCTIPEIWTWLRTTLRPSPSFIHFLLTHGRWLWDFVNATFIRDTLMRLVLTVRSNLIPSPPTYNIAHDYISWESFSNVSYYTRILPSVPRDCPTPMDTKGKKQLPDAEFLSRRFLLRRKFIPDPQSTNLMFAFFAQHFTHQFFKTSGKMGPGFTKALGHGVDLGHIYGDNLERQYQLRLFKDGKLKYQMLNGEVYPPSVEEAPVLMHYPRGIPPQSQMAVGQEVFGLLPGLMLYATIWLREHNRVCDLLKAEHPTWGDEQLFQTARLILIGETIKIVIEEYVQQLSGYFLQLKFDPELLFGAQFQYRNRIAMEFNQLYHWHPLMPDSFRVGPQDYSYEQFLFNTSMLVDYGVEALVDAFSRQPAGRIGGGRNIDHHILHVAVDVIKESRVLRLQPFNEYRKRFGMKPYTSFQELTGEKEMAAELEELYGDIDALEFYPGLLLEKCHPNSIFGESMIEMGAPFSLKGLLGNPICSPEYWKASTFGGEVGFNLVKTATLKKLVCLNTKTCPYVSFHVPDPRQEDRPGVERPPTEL

[2] = target: T2, Prostaglandin G/H synthase 2 (Mus musculus, UniProt Q05769); experiment: Inhibition of mouse COX-2 assessed as inhibition of [14C]arachidonic acid to radiolabeled prostaglandins preincubated for 20 mins by TLC-based assay
T2 sequence (Q05769 whole entry): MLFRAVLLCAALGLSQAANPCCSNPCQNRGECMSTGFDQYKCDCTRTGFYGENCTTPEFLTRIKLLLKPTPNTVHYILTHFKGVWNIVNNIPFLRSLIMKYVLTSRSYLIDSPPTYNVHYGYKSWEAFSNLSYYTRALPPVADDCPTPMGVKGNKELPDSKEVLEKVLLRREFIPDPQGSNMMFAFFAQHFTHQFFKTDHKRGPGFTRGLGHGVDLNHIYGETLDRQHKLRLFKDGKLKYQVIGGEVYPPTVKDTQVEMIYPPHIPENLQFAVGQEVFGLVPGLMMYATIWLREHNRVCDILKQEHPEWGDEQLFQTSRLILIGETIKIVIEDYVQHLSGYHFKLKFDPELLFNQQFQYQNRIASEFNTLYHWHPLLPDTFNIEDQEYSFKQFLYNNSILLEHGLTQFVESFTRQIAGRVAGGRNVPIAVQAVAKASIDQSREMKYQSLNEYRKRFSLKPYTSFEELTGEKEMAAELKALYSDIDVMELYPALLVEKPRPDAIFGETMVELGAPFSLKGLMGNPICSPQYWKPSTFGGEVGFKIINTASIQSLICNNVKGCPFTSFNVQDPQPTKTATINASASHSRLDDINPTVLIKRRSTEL

[3] = target: T3, Prostaglandin G/H synthase 2 (Mus musculus) (UniProt Q05769); experiment: Inhibition of mouse COX-2 assessed as inhibition of [14C]arachidonic acid to radiolabeled prostaglandins measured as residual activity preincubated for 20 mins by TLC-based assay
T3 sequence (whole entry): T2 sequence (Q05769 whole entry)

[4] = target: Prostaglandin G/H synthase 1 (Homo sapiens, UniProt P23219); experiment: Inhibition of COX-1 in human OVCAR3 cells by cell-based assay; set-up: species or system OVCAR-3
[5] = target: T4, Prostaglandin G/H synthase 2 (Homo sapiens, UniProt P35354); experiment: Inhibition of COX-2 in human 1483 cells by cell-based assay
T4 sequence (P35354 whole entry): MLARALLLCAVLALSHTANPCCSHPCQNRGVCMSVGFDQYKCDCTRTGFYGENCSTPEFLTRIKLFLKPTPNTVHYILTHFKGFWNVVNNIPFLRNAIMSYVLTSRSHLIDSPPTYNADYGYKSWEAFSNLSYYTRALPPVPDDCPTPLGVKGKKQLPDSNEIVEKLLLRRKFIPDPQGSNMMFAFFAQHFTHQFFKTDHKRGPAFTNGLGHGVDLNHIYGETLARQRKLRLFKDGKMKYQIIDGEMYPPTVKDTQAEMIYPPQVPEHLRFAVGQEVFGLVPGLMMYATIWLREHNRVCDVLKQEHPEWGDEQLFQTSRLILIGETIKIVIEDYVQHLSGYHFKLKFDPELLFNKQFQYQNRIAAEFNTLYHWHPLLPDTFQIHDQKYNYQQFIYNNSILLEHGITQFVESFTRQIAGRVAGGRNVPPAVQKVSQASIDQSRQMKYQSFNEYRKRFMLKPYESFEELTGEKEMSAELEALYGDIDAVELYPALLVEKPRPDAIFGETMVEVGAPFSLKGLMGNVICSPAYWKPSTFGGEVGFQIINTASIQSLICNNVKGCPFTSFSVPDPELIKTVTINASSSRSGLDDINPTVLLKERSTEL

Prostaglandin G/H synthase 1 (Homo sapiens, UniProt P23219), sequence (P23219 whole entry): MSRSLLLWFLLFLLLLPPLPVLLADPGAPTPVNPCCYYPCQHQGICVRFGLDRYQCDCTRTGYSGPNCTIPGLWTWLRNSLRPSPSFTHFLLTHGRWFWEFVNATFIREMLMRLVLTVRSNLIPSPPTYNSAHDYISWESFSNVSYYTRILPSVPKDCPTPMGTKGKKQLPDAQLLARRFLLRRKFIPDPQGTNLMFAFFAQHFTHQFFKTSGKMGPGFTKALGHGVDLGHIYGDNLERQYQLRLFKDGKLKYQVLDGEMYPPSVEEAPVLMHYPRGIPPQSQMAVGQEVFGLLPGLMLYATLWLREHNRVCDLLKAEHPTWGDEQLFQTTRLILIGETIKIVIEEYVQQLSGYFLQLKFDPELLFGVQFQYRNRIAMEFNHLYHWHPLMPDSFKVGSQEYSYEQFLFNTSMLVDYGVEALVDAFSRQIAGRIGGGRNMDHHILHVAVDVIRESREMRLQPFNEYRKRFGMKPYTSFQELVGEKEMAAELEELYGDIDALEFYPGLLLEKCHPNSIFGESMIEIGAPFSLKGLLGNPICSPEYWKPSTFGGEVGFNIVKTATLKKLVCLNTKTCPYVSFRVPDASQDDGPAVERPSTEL

Row | SMILES | IC50 [1] [µM] | IC50 [2] [µM] | Activity [3] [%] | IC50 [4] [µM] | IC50 [5] [µM]
1 | O=C1OCC(c2ccccc2F)=C1c1ccc(Cl)cc1 | > 25 | > 25 |  |  | 
2 | Cc1ccc(C2=C(c3cccc(F)c3)C(=O)OC2)cc1 | > 25 | > 25 |  |  | 
3 | COc1ccc(C2=C(c3ccnc(Cl)c3)C(=O)OC2)cc1 | 4.4 | > 25 |  |  | 
4 | N#Cc1ccc(C2=C(c3ccnc(Cl)c3)C(=O)OC2)cc1 | 3 | > 25 |  |  | 
5 | COc1ccc(C2=C(c3ccc(C(F)(F)F)cc3)C(=O)OC2)cc1 | 1 | > 25 |  |  | 
6 | CS(=O)(=O)c1ccc(C2=C(c3ccccc3)C(=O)OC2)cc1 [ROFECOXIB] |  | 0.06 |  |  | 
7 | CCc1ccc(C2=C(c3cccc(F)c3)C(=O)OC2)cc1 | 9.75 | > 25 |  |  | 
8 | COc1ccc(C2=C(c3ccnc(F)c3)C(=O)OC2)cc1 | 4.6 | > 25 |  |  | 
9 | O=C1OCC(c2ccc(C(F)(F)F)cc2)=C1c1cccc(F)c1 | > 25 | > 25 |  |  | 
10 | Cc1ccc(C2=C(c3ccnc(Cl)c3)C(=O)OC2)cc1 | 5 | > 25 |  |  | 
11 | O=C1OCC(c2ccc(Cl)cc2)=C1c1ccnc(Cl)c1 | > 25 | > 25 |  |  | 
12 | Cc1ccc(C2=C(c3ccc(F)cc3)COC2=O)cc1 | > 25 | > 25 |  |  | 
13 | N#Cc1ccc(C2=C(c3cccc(F)c3)C(=O)OC2)cc1 | 0.47 | > 25 |  |  | 
14 | CSc1ccc(C2=C(c3ccc(F)cc3)C(=O)OC2)cc1 | > 25 | > 25 |  |  | 
15 | O=C1OCC(c2ccc(OC(F)(F)F)cc2)=C1c1cccc(F)c1 | > 25 | > 25 |  |  | 
16 | N#Cc1ccc(C2=C(c3ccnc(F)c3)C(=O)OC2)cc1 | 4.4 | > 25 |  |  | 
17 | O=C1OCC(c2ccc(Cl)cc2)=C1c1ccnc(F)c1 | 15.7 | > 25 |  |  | 
18 | Cc1ccc(C2=C(c3ccccc3F)C(=O)OC2)cc1 | 1 | > 25 |  |  | 
19 | COc1ccc(C2=C(c3cccc(F)c3)C(=O)OC2)cc1 | 0.36 | > 25 | > 50 |  | 
20 | O=C1OCC(c2ccccc2F)=C1c1ccccc1 | > 25 | > 25 |  |  | 
21 | O=C1OCC(c2ccc(F)cc2)=C1c1ccc(Cl)cc1 | > 25 | > 25 |  |  | 
22 | O=C1OCC(c2ccccc2F)=C1c1ccc(Br)cc1 | > 25 | > 25 |  |  | 
23 | O=C1OCC(c2ccc(F)cc2)=C1c1ccc(CO)cc1 | > 25 | > 25 |  |  | 
24 | COc1ccc(C2=C(c3ccccc3)C(=O)OC2)cc1 | > 25 | > 25 |  |  | 
25 | CN(C)c1ccc(C2=C(c3ccc(F)cc3)COC2=O)cc1 | > 25 | > 25 |  |  | 

Row | SMILES | IC50 [1] [µM] | IC50 [2] [µM] | Activity [3] [%] | IC50 [4] [µM] | IC50 [5] [µM]
26 | O=C1OCC(c2ccccc2)=C1c1ccccc1 | 5.9 | > 25 |  |  | 
27 | Cc1ccc(C2=C(c3cccc(F)c3)COC2=O)cc1 | > 25 | > 25 |  |  | 
28 | COc1ccc(C2=C(c3ccc(F)cc3)C(=O)OC2)cc1 | 0.48 | > 25 | > 50 | 0.36 | > 5
29 | O=C1OCC(c2cccc(F)c2)=C1c1ccccc1 | > 25 | > 25 |  |  | 
30 | COc1ccc(C2=C(c3ccc(Br)cc3)C(=O)OC2)cc1 | 0.12 | 0.45 |  |  | 
31 | Cc1ccc(C2=C(c3ccccc3F)COC2=O)cc1 | > 25 | > 25 |  |  | 
32 | O=C1OCC(c2ccccc2)=C1c1ccc(F)cc1 | 6 | > 25 |  | 2.8 | > 5
33 | CN(C)c1ccc(C2=C(c3ccccc3F)COC2=O)cc1 | > 25 | > 25 |  |  | 
34 | O=C1OCC(c2ccccc2)=C1c1cccc(F)c1 | > 25 | > 25 |  |  | 
35 | COc1ccc(C2=C(c3ccc(Oc4ccc(F)cc4)cc3)C(=O)OC2)cc1 | > 25 | > 25 |  |  | 
36 | O=C1OCC(c2ccc(O)cc2)=C1c1cccc(F)c1 | 1.75 | > 25 |  |  | 
37 | COc1ccc(C2=C(c3cccc(Cl)c3F)C(=O)OC2)cc1 | 0.3 | > 25 | > 50 |  | 
38 | O=C1OCC(c2ccc(F)cc2)=C1c1ccccc1 | > 25 | > 25 |  |  | 
39 | Cc1ccc(C2=C(c3ccnc(F)c3)C(=O)OC2)cc1 | > 25 | > 25 |  |  | 
40 | O=C1OCC(c2ccc(F)cc2)=C1c1ccc(Br)cc1 | > 25 | > 25 |  |  | 
41 | O=C1OCC(c2ccc(F)cc2)=C1c1ccc(O)cc1 | > 25 | > 25 |  |  | 
42 | O=C1OCC(c2ccccc2F)=C1c1ccc(CO)cc1 | > 25 | > 25 |  |  | 
43 | COc1ccc(C2=C(c3ccccc3F)C(=O)OC2)cc1 | > 25 | > 25 |  |  | 
44 | Cc1ccc(C2=C(c3ccc(F)cc3)C(=O)OC2)cc1 | 0.95 | > 25 |  | 0.78 | > 5
45 | COc1ccc(C2=C(c3cccc(C(F)(F)F)c3)C(=O)OC2)cc1 | 8.8 | > 25 |  |  | 
46 | COc1ccc(C2=C(c3ccc(I)cc3)C(=O)OC2)cc1 | 0.09 | > 25 | > 50 | > 4 | > 5
47 | O=C1OCC(c2ccccc2)=C1c1ccc(Oc2ccc(F)cc2)cc1 | > 25 | > 25 |  |  | 
48 | O=C1OCC(c2ccccc2)=C1c1ccccc1F | > 25 | > 25 |  |  | 
49 | Cc1ccc(C2=C(c3ccc(Oc4ccc(F)cc4)cc3)C(=O)OC2)cc1 | > 25 | > 25 |  |  | 
